Measured values taken from EPA's ToxValDB 9.5 (doi:10.2903/j.efsa.2006.53r).
≈ marks a conversion by molar mass, not a printed value.

Legend:
[1] = test system: Daphnia magna
[2] = test system: Colinus virginianus; conditions: for LD50: acute, oral, mortality
[3] = test system: Oncorhynchus mykiss
[4] = test system: Apis mellifera; conditions: acute, mortality
[5] = test system: Canidae; conditions: Dog Other, organ weight
[6] = test system: Aphidius rhopalosiphi; conditions: not reported; mortality
[7] = test system: Rattus norvegicus
[8] = test system: Tagia sp.; conditions: acute; mortality

## COCC(C)N(C(=O)CCl)c1c(C)csc1C (stereo unspecified) [Dimethenamid]
[1]; acute, duration: 48 hours, mortality
  LC50: 12 µg/mL (≈ 43.5 µM)
[1]; chronic/long-term, duration: 21 days
  NOEC: 0.68 mg/L
[2]; diet
  LD50: 1200 mg/kg
[2]
  LD50: 1910 mg/kg
[2]; reproduction developmental
  NOAEL: 114 mg/kg-day
[3]; acute, duration: 96 hours, mortality
  LC50: 2.6 µg/mL (≈ 9.43 µM)
[3]; chronic/long-term, duration: 90 days, growth
  NOEC: 0.12 mg/L
[4]; duration: 48 hours, dermal
  LD50: 94 µg/piece
[4]; oral, unspecified
  LD50: 1000 µg/piece
[5]; chronic, duration: 1 years
  NOAEL: 2 mg/kg-day
[5]; subchronic, duration: 90 days
  NOAEL: 4.3 mg/kg-day
[6]
  LEL: 1010 g/ha
[7]; acute, oral, mortality
  LD50: 397 mg/kg
[7]; reproduction developmental, growth
  NOAEL: 33.3 mg/kg-day
[7]; short-term, duration: 4 days, oral, gavage, organ weight
  NOAEL: 25 mg/kg-day
[8]
  LC50: 294 mg/kg
